Columns and labels:
Test in all cases: concentration in plasma after dosing
Rat [1] = settings: dosed: Anthraquinone, 40 mg/kg, oral, Female, F344
Rat [2] = settings: dosed: Anthraquinone, 400 mg/kg, oral, Male, F344
Rat [3] = settings: dosed: Anthraquinone, 400 mg/kg, oral, Male, F344; remark: listed apart in the source
Rat [4] = settings: dosed: Anthraquinone, 100 mg/kg, oral, Male, F344
Rat [5] = settings: dosed: Anthraquinone, 40 mg/kg, oral, Female, Harlan Sprague Dawley
Rat [6] = settings: dosed: Anthraquinone, 100 mg/kg, oral, Male, F344; remark: listed apart in the source
Rat [7] = settings: dosed: Anthraquinone, 40 mg/kg, oral, Female, F344; remark: listed apart in the source
Rat [8] = settings: dosed: Anthraquinone, 40 mg/kg, oral, Female, Harlan Sprague Dawley; remark: listed apart in the source
Rat [9] = settings: dosed: Anthraquinone, 100 mg/kg, oral, Male, F344; remark: listed apart in the source
Rat [10] = settings: dosed: Anthraquinone, 100 mg/kg, oral, Female, Harlan Sprague Dawley
Rat [11] = settings: dosed: Anthraquinone, 100 mg/kg, oral, Male, F344; remark: listed apart in the source
Rat [12] = settings: dosed: Anthraquinone, 40 mg/kg, oral, Male, Harlan Sprague Dawley
Rat [13] = settings: 24 h; dosed: Anthraquinone; 40 mg/kg; oral; Male; F344
Rat [14] = settings: dosed: Anthraquinone, 100 mg/kg, oral, Female, F344
Rat [15] = settings: dosed: Anthraquinone, 100 mg/kg, oral, Male, F344; remark: listed apart in the source
Rat [16] = settings: 24 h; dosed: Anthraquinone; 100 mg/kg; oral; Male; F344
Rat [17] = settings: dosed: Anthraquinone, 400 mg/kg, oral, Male, F344; remark: listed apart in the source
Rat [18] = settings: dosed: Anthraquinone, 100 mg/kg, oral, Male, F344; remark: listed apart in the source
Rat [19] = settings: dosed: Anthraquinone, 100 mg/kg, oral, Male, F344; remark: listed apart in the source
Rat [20] = settings: dosed: Anthraquinone, 400 mg/kg, oral, Male, F344; remark: listed apart in the source
Rat [21] = settings: dosed: Anthraquinone, 40 mg/kg, oral, Female, Harlan Sprague Dawley; remark: listed apart in the source
Rat [22] = settings: 24 h; dosed: Anthraquinone; 100 mg/kg; oral; Male; F344; remark: listed apart in the source
Rat [23] = settings: dosed: Anthraquinone, oral
Rat [24] = settings: dosed: Anthraquinone, 40 mg/kg, oral, Female, Harlan Sprague Dawley; remark: listed apart in the source
Rat [25] = settings: dosed: Anthraquinone, 100 mg/kg, oral, Female, F344; remark: listed apart in the source
Rat [26] = settings: dosed: Anthraquinone, 40 mg/kg, oral, Male, Harlan Sprague Dawley; remark: listed apart in the source
Rat [27] = settings: dosed: Anthraquinone, 400 mg/kg, oral, Male, F344; remark: listed apart in the source
Rat [28] = settings: dosed: Anthraquinone, 100 mg/kg, oral, Female, Harlan Sprague Dawley; remark: listed apart in the source
Rat [29] = settings: dosed: Anthraquinone, 100 mg/kg, oral, Male, F344; remark: listed apart in the source
Rat [30] = settings: dosed: Anthraquinone, 40 mg/kg, oral, Male, Harlan Sprague Dawley; remark: listed apart in the source
Rat [31] = settings: dosed: Anthraquinone, 40 mg/kg, oral, Male, Harlan Sprague Dawley; remark: listed apart in the source
Rat [32] = settings: dosed: Anthraquinone, 40 mg/kg, oral, Female, Harlan Sprague Dawley; remark: listed apart in the source
Rat [33] = settings: dosed: Anthraquinone, 100 mg/kg, oral, Female, Harlan Sprague Dawley; remark: listed apart in the source
Rat [34] = settings: dosed: Anthraquinone, 100 mg/kg, oral, Female, Harlan Sprague Dawley; remark: listed apart in the source
Rat [35] = settings: dosed: Anthraquinone, 100 mg/kg, oral, Male, F344; remark: listed apart in the source
Rat [36] = settings: dosed: Anthraquinone, 40 mg/kg, oral, Female, Harlan Sprague Dawley; remark: listed apart in the source

O=C1c2ccccc2C(=O)c2ccccc21 [Anthraquinone]
Settings	concentration in plasma [ng/mL]
Rat [1], 1 h	36
Rat [1], 18 h	157
Rat [2], 2 h	352
Rat [2], 12 h	2500
Rat [3], 0.5 h	163
Rat [3], 24 h	1970
Rat [4], 2 h	120
Rat [4], 12 h	671
Rat [5], 1 h	57
Rat [5], 18 h	124
Rat [6], 0.5 h	41
Rat [6], 24 h	433
Rat [7], 1 h	61
Rat [7], 18 h	131
Rat [8], 2 h	128
Rat [8], 12 h	238
Rat [9], 0.5 h	27
Rat [9], 24 h	349
Rat [10], 4 h	255
Rat [10], 8 h	992
Rat [11], 0.5 h	28
Rat [11], 24 h	197
Rat [12], 4 h	131
Rat [12], 8 h	293
Rat [14], 1 h	63
Rat [14], 18 h	469
Rat [15], 1 h	72
Rat [15], 18 h	596
Rat [17], 1 h	345
Rat [17], 18 h	2880
Rat [18], 2 h	233
Rat [18], 12 h	719
Rat [19], 4 h	205
Rat [19], 8 h	522
Rat [20], 1 h	129
Rat [20], 18 h	2320
Rat [21], 2 h	90
Rat [21], 12 h	224
Rat [24], 1 h	65
Rat [24], 18 h	87
Rat [25], 1 h	61
Rat [25], 18 h	538
Rat [26], 2 h	101
Rat [26], 12 h	255
Rat [27], 0.5 h	148
Rat [27], 24 h	2120
Rat [28], 4 h	262
Rat [28], 8 h	595
Rat [29], 1 h	55
Rat [29], 18 h	429
Rat [30], 2 h	99
Rat [30], 12 h	242
Rat [31], 4 h	117
Rat [31], 8 h	241
Rat [32], 4 h	136
Rat [32], 8 h	280
Rat [33], 2 h	192
Rat [33], 12 h	818
Rat [34], 2 h	210
Rat [34], 12 h	880
Rat [35], 4 h	323
Rat [35], 8 h	758
Rat [36], 4 h	111
Rat [36], 8 h	255

Settings	concentration in plasma [ng/mL]
Rat [13]	66
Rat [16]	259
Rat [22]	210

concentration in plasma [ng/mL], Rat [23]
Settings	0.5 h	1 h	2 h	4 h	8 h	12 h	18 h	24 h
40 mg/kg, Female, F344	–	30	–	–	–	–	191	–
40 mg/kg, Female, Harlan Sprague Dawley	–	61	154	149	249	224	103	65
40 mg/kg, Male, F344	–	–	–	–	–	–	–	26
40 mg/kg, Male, Harlan Sprague Dawley	–	–	87	101	203	204	–	–
100 mg/kg, Female, F344	–	66	–	–	–	–	652	–
100 mg/kg, Female, Harlan Sprague Dawley	–	–	127	232	721	610	–	–
100 mg/kg, Male, F344	–	63	157	259	611	696	415	261
400 mg/kg, Male, F344	106	235	285	–	–	2590	2700	1940

From EPA's CvTdb concentration-time database
